Laboratory results reported in the supplement of paper PMC10307832.

Assays:
Assay in all cases: relative viability (nuclei count vs DMSO), 5 days (fraction); higher = more cells survive
VX-11e + Alpelisib = compound: CC1=CN=C(N=C1C2=CNC(=C2)C(=O)N[C@H](CO)C3=CC(=CC=C3)Cl)NC4=C(C=C(C=C4)F)Cl [VX-11e] + Cc1nc(NC(=O)N2CCC[C@H]2C(N)=O)sc1-c1ccnc(C(C)(C)C(F)(F)F)c1 [Alpelisib] (partner 2 µM)
How it was run: (§1)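 Each reported value is a median over duplicate plates. It expresses relative viability: treated-well nuclei count divided by vehicle-well nuclei count. Lung cancer cell lines in 1536-well plates were dosed by pin tool a day after seeding, alone with one drug or with a fixed anchor-drug dose plus five library-drug doses (not always all listed) in √10 steps, and nuclei were counted after 5 days.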

VX-11e + Lapatinib = compound: CC1=CN=C(N=C1C2=CNC(=C2)C(=O)N[C@H](CO)C3=CC(=CC=C3)Cl)NC4=C(C=C(C=C4)F)Cl [VX-11e] + CS(=O)(=O)CCNCc1ccc(-c2ccc3ncnc(Nc4ccc(OCc5cccc(F)c5)c(Cl)c4)c3c2)o1 [Lapatinib] (partner 2 µM)
How it was run: as §1

VX-11e + OSI-027 = compound: CC1=CN=C(N=C1C2=CNC(=C2)C(=O)N[C@H](CO)C3=CC(=CC=C3)Cl)NC4=C(C=C(C=C4)F)Cl [VX-11e] + COc1cccc2cc(-c3nc([C@H]4CC[C@H](C(=O)O)CC4)n4ncnc(N)c34)[nH]c12 [OSI-027] (partner 0.5 µM)
How it was run: as §1

VX-11e + Linsitinib = compound: CC1=CN=C(N=C1C2=CNC(=C2)C(=O)N[C@H](CO)C3=CC(=CC=C3)Cl)NC4=C(C=C(C=C4)F)Cl [VX-11e] + C[C@]1(O)C[C@@H](c2nc(-c3ccc4ccc(-c5ccccc5)nc4c3)c3c(N)nccn32)C1 [Linsitinib] (partner 1 µM)
How it was run: as §1

## PC-3 [JPC-3]
VX-11e + Alpelisib; first compound 0.04 µM
  relative viability: 1.03
VX-11e + Alpelisib; first compound 0.1265 µM
  relative viability: 1.02
VX-11e + Alpelisib; first compound 0.4 µM
  relative viability: 1
VX-11e + Alpelisib; first compound 1.265 µM
  relative viability: 1.15
VX-11e + Alpelisib; first compound 4 µM
  relative viability: 0.827
VX-11e + Lapatinib; first compound 0.04 µM
  relative viability: 0.384
VX-11e + Lapatinib; first compound 0.1265 µM
  relative viability: 0.485
VX-11e + Lapatinib; first compound 0.4 µM
  relative viability: 0.436
VX-11e + Lapatinib; first compound 1.265 µM
  relative viability: 0.453
VX-11e + Lapatinib; first compound 4 µM
  relative viability: 0.445
VX-11e + OSI-027; first compound 0.04 µM
  relative viability: 0.705
VX-11e + OSI-027; first compound 0.1265 µM
  relative viability: 0.714
VX-11e + OSI-027; first compound 0.4 µM
  relative viability: 0.685
VX-11e + OSI-027; first compound 1.265 µM
  relative viability: 0.866
VX-11e + OSI-027; first compound 4 µM
  relative viability: 0.544
VX-11e + Linsitinib; first compound 0.04 µM
  relative viability: 1.08
VX-11e + Linsitinib; first compound 0.1265 µM
  relative viability: 0.959
VX-11e + Linsitinib; first compound 0.4 µM
  relative viability: 0.99
VX-11e + Linsitinib; first compound 1.265 µM
  relative viability: 1.09
VX-11e + Linsitinib; first compound 4 µM
  relative viability: 0.822

## PC-14
VX-11e + Alpelisib; first compound 0.04 µM
  relative viability: 1.13
VX-11e + Alpelisib; first compound 0.1265 µM
  relative viability: 0.916
VX-11e + Alpelisib; first compound 0.4 µM
  relative viability: 0.676
VX-11e + Alpelisib; first compound 1.265 µM
  relative viability: 0.918
VX-11e + Alpelisib; first compound 4 µM
  relative viability: 0.459
VX-11e + Lapatinib; first compound 0.04 µM
  relative viability: 0.275
VX-11e + Lapatinib; first compound 0.1265 µM
  relative viability: 0.327
VX-11e + Lapatinib; first compound 0.4 µM
  relative viability: 0.251
VX-11e + Lapatinib; first compound 1.265 µM
  relative viability: 0.35
VX-11e + Lapatinib; first compound 4 µM
  relative viability: 0.203
VX-11e + OSI-027; first compound 0.04 µM
  relative viability: 0.739
VX-11e + OSI-027; first compound 0.1265 µM
  relative viability: 0.723
VX-11e + OSI-027; first compound 0.4 µM
  relative viability: 0.4
VX-11e + OSI-027; first compound 1.265 µM
  relative viability: 0.635
VX-11e + OSI-027; first compound 4 µM
  relative viability: 0.166
VX-11e + Linsitinib; first compound 0.04 µM
  relative viability: 1
VX-11e + Linsitinib; first compound 0.1265 µM
  relative viability: 0.866
VX-11e + Linsitinib; first compound 0.4 µM
  relative viability: 0.953
VX-11e + Linsitinib; first compound 1.265 µM
  relative viability: 0.961
VX-11e + Linsitinib; first compound 4 µM
  relative viability: 0.665

## RERF-LC-KJ
VX-11e + Alpelisib; first compound 0.04 µM
  relative viability: 1.47
VX-11e + Alpelisib; first compound 0.1265 µM
  relative viability: 0.739
VX-11e + Alpelisib; first compound 1.265 µM
  relative viability: 0.829
VX-11e + Alpelisib; first compound 4 µM
  relative viability: 0.551
VX-11e + Lapatinib; first compound 0.04 µM
  relative viability: 0.833
VX-11e + Lapatinib; first compound 0.1265 µM
  relative viability: 0.776
VX-11e + Lapatinib; first compound 0.4 µM
  relative viability: 0.879
VX-11e + Lapatinib; first compound 1.265 µM
  relative viability: 0.848
VX-11e + Lapatinib; first compound 4 µM
  relative viability: 0.649
VX-11e + OSI-027; first compound 0.04 µM
  relative viability: 0.442
VX-11e + OSI-027; first compound 0.1265 µM
  relative viability: 0.474
VX-11e + OSI-027; first compound 0.4 µM
  relative viability: 0.528
VX-11e + OSI-027; first compound 1.265 µM
  relative viability: 0.504
VX-11e + OSI-027; first compound 4 µM
  relative viability: 0.327
VX-11e + Linsitinib; first compound 0.04 µM
  relative viability: 0.989
VX-11e + Linsitinib; first compound 0.1265 µM
  relative viability: 0.863
VX-11e + Linsitinib; first compound 0.4 µM
  relative viability: 0.862
VX-11e + Linsitinib; first compound 1.265 µM
  relative viability: 0.874
VX-11e + Linsitinib; first compound 4 µM
  relative viability: 0.708

## SK-LU-1
VX-11e + Alpelisib; first compound 0.04 µM
  relative viability: 1.26
VX-11e + Alpelisib; first compound 0.1265 µM
  relative viability: 1.1
VX-11e + Alpelisib; first compound 0.4 µM
  relative viability: 1.05
VX-11e + Alpelisib; first compound 1.265 µM
  relative viability: 0.592
VX-11e + Alpelisib; first compound 4 µM
  relative viability: 0.263
VX-11e + Lapatinib; first compound 0.04 µM
  relative viability: 0.897
VX-11e + Lapatinib; first compound 0.1265 µM
  relative viability: 0.744
VX-11e + Lapatinib; first compound 0.4 µM
  relative viability: 0.524
VX-11e + Lapatinib; first compound 1.265 µM
  relative viability: 0.752
VX-11e + Lapatinib; first compound 4 µM
  relative viability: 0.272
VX-11e + OSI-027; first compound 0.04 µM
  relative viability: 0.285
VX-11e + OSI-027; first compound 0.1265 µM
  relative viability: 0.352
VX-11e + OSI-027; first compound 1.265 µM
  relative viability: 0.233
VX-11e + OSI-027; first compound 4 µM
  relative viability: 0.132
VX-11e + Linsitinib; first compound 0.04 µM
  relative viability: 0.597
VX-11e + Linsitinib; first compound 0.1265 µM
  relative viability: 0.925
VX-11e + Linsitinib; first compound 0.4 µM
  relative viability: 1.31
VX-11e + Linsitinib; first compound 1.265 µM
  relative viability: 0.771
VX-11e + Linsitinib; first compound 4 µM
  relative viability: 0.316

## SK-MES-1
VX-11e + Alpelisib; first compound 0.04 µM
  relative viability: 1.31
VX-11e + Alpelisib; first compound 0.1265 µM
  relative viability: 0.815
VX-11e + Alpelisib; first compound 0.4 µM
  relative viability: 0.718
VX-11e + Alpelisib; first compound 1.265 µM
  relative viability: 0.644
VX-11e + Alpelisib; first compound 4 µM
  relative viability: 0.208
VX-11e + Lapatinib; first compound 0.04 µM
  relative viability: 0.452
VX-11e + Lapatinib; first compound 0.1265 µM
  relative viability: 0.414
VX-11e + Lapatinib; first compound 0.4 µM
  relative viability: 0.47
VX-11e + Lapatinib; first compound 1.265 µM
  relative viability: 0.436
VX-11e + Lapatinib; first compound 4 µM
  relative viability: 0.282
VX-11e + OSI-027; first compound 0.04 µM
  relative viability: 0.585
VX-11e + OSI-027; first compound 0.1265 µM
  relative viability: 0.436
VX-11e + OSI-027; first compound 0.4 µM
  relative viability: 0.632
VX-11e + OSI-027; first compound 1.265 µM
  relative viability: 0.552
VX-11e + OSI-027; first compound 4 µM
  relative viability: 0.185
VX-11e + Linsitinib; first compound 0.04 µM
  relative viability: 1.08
VX-11e + Linsitinib; first compound 0.1265 µM
  relative viability: 1.03
VX-11e + Linsitinib; first compound 0.4 µM
  relative viability: 1.07
VX-11e + Linsitinib; first compound 1.265 µM
  relative viability: 1.05
VX-11e + Linsitinib; first compound 4 µM
  relative viability: 0.691

## SW 1573
VX-11e + Alpelisib; first compound 0.04 µM
  relative viability: 0.791
VX-11e + Alpelisib; first compound 0.1265 µM
  relative viability: 0.825
VX-11e + Alpelisib; first compound 0.4 µM
  relative viability: 0.767
VX-11e + Alpelisib; first compound 1.265 µM
  relative viability: 0.59
VX-11e + Alpelisib; first compound 4 µM
  relative viability: 0.39
VX-11e + Lapatinib; first compound 0.04 µM
  relative viability: 1.11
VX-11e + Lapatinib; first compound 0.1265 µM
  relative viability: 0.979
VX-11e + Lapatinib; first compound 0.4 µM
  relative viability: 1.07
VX-11e + Lapatinib; first compound 1.265 µM
  relative viability: 0.891
VX-11e + Lapatinib; first compound 4 µM
  relative viability: 0.472
VX-11e + OSI-027; first compound 0.04 µM
  relative viability: 0.52
VX-11e + OSI-027; first compound 0.1265 µM
  relative viability: 0.561
VX-11e + OSI-027; first compound 0.4 µM
  relative viability: 0.708
VX-11e + OSI-027; first compound 1.265 µM
  relative viability: 0.402
VX-11e + OSI-027; first compound 4 µM
  relative viability: 0.194
VX-11e + Linsitinib; first compound 0.04 µM
  relative viability: 1.03
VX-11e + Linsitinib; first compound 0.1265 µM
  relative viability: 0.959
VX-11e + Linsitinib; first compound 0.4 µM
  relative viability: 0.718
VX-11e + Linsitinib; first compound 1.265 µM
  relative viability: 0.78
VX-11e + Linsitinib; first compound 4 µM
  relative viability: 0.432

## UMC-11
VX-11e + Alpelisib; first compound 0.04 µM
  relative viability: 0.921
VX-11e + Alpelisib; first compound 0.1265 µM
  relative viability: 1
VX-11e + Alpelisib; first compound 0.4 µM
  relative viability: 0.962
VX-11e + Alpelisib; first compound 1.265 µM
  relative viability: 0.97
VX-11e + Alpelisib; first compound 4 µM
  relative viability: 0.973
VX-11e + Lapatinib; first compound 0.04 µM
  relative viability: 0.546
VX-11e + Lapatinib; first compound 0.1265 µM
  relative viability: 0.94
VX-11e + Lapatinib; first compound 0.4 µM
  relative viability: 0.712
VX-11e + Lapatinib; first compound 1.265 µM
  relative viability: 0.602
VX-11e + Lapatinib; first compound 4 µM
  relative viability: 0.758
VX-11e + OSI-027; first compound 0.04 µM
  relative viability: 0.36
VX-11e + OSI-027; first compound 0.1265 µM
  relative viability: 0.435
VX-11e + OSI-027; first compound 0.4 µM
  relative viability: 0.41
VX-11e + OSI-027; first compound 1.265 µM
  relative viability: 0.379
VX-11e + OSI-027; first compound 4 µM
  relative viability: 0.428
VX-11e + Linsitinib; first compound 0.04 µM
  relative viability: 0.935
VX-11e + Linsitinib; first compound 0.1265 µM
  relative viability: 0.937
VX-11e + Linsitinib; first compound 0.4 µM
  relative viability: 1
VX-11e + Linsitinib; first compound 1.265 µM
  relative viability: 1
VX-11e + Linsitinib; first compound 4 µM
  relative viability: 0.989
